Results on 13 compounds are retold here after paper PMC7830743 (Journal of medicinal chemistry, 2020).

Series [1] can be described thus: RLM stability assay, single time point. The following applies: single-point (15 min) measurement; >30 min is highest estimable.
The nature of a further series: Kinetic solubility assay. The format is physicochemical. The conditions noted are these: PBS buffer.
Series [2] has as its system tumor LDH activity (A673 flank xenograft). Nature of the series: In vivo LDHA activity in A673 xenograft tumor mouse model. The following applies: single IV 50 mg/kg, A673 xenograft mice.
Another series deals with LDHA (Homo sapiens, UniProt P00338). Nature of the series: Biochemical LDHA inhibition assay.
For series [3], the system named is A673 cells. Nature of the series: Cellular lactate production assay in A673 cells. Type of series: cell-based, human. The following applies: Homo sapiens, A673, 0.5 h, read-out: A673 cells lactate inh. IC50.
The test system of series [4] is A673 cells. Nature of the series: Cytotoxicity assay in A673 cells. Type of series: cell-based, human. The following applies: Homo sapiens, A673, 48 h, read-out: A673 cells Cytotox. IC50.
Series [5] concerns MiaPaCa-2 cells. Nature of the series: Cytotoxicity assay in MiaPaCa-2 cells. Type of series: cell-based. The following applies: Homo sapiens, MIA PaCa-2, 48 h, read-out: MiaPaCa-2 cells Cytotox. IC50.
Series [6] relates to MiaPaCa-2 cells. Description: Cellular lactate production assay in MiaPaCa-2 cells. The format is cell-based. The conditions noted are these: Homo sapiens, MIA PaCa-2, 0.5 h, read-out: MiaPaCa-2 cells lactate inh. IC50.
The target of series [7] is LDHA with C-terminal HiBiT fusion tag (Homo sapiens, UniProt P00338). Description: SplitLuc CETSA. The format is cell-based.
The nature of series [8]: Mouse pharmacokinetic studies. The format is in vivo, CD1 mice. The following applies: male, CD1, mouse, plasma, iv, 10 mg/kg.

Regarding `CCCCC#Cc1cc(-c2nn(-c3nc(C(=O)O)cs3)c(CC3CC3)c2Cc2ccc(S(N)(=O)=O)c(F)c2)ccc1F` [Compound 15, 2-(5-(Cyclopropylmethyl)-3-(4-fluoro-3-(hex-1-yn-1-yl)phenyl)-4-(3-fluoro-4-sulfamoylbenzyl)-1H-pyrazol-1-yl)thiazole-4-carboxylic Acid], the “RLM stability T1/2” value in [1] was “metabolized quickly”.

Turning to `Cc1nc(C#Cc2cccc(-c3nn(-c4nc(C(=O)O)cs4)c(CC4CC4)c3Cc3ccc(S(N)(=O)=O)c(F)c3)c2)cs1` [Compound 65, 2-(5-(Cyclopropylmethyl)-4-(3-fluoro-4-sulfamoylbenzyl)-3-(3-((2-methylthiazol-4-yl)ethynyl)phenyl)-1H-pyrazol-1-yl)thiazole-4-carboxylic Acid], in the series “Kinetic solubility assay”, the “aq solubility at pH 7.4” value was “significantly diminished”.

Take `CCCC#Cc1cc(-c2nn(-c3nc(C(=O)O)cs3)c(CC3CC3)c2Cc2ccc(S(N)(=O)=O)c(F)c2)ccc1F` [Compound 14, 2-(5-(Cyclopropylmethyl)-3-(4-fluoro-3-(pent-1-yn-1-yl)phenyl)-4-(3-fluoro-4-sulfamoylbenzyl)-1H-pyrazol-1-yl)thiazole-4-carboxylic Acid]: the “RLM stability T1/2” value in series [1] was “metabolized quickly”. In addition, the “effect on LDH activity in tumors (in words)” value in series [2] is on record as “less effects”.

For orientation: IC50 means the concentration at which inhibition is half-maximal. Regarding `Cc1ccc(C#Cc2cccc(-c3nn(-c4nc(C(=O)O)cs4)c(C4CC45CC5)c3Cc3ccc(S(N)(=O)=O)c(F)c3)c2)s1` (stereo not drawn) [Compound 87, 2-(4-(3-Fluoro-4-sulfamoylbenzyl)-3-(3-((5-methylthiophen-2-yl)ethynyl)phenyl)-5-(spiro[2.2]pentan-1-yl)-1H-pyrazol-1-yl)-thiazole-4-carboxylic Acid], the IC50 on LDHA stood at 122 nM; with A673 cells [3] it was 485 nM; in the series with A673 cells [4], 526 nM; in the series on MiaPaCa-2 cells [5], 469 nM; with MiaPaCa-2 cells [6], 459 nM; in series [7] it was 175 nM.

Consider `Cc1cnc(C#Cc2cccc(-c3nn(-c4nc(C(=O)O)cs4)c(CCC4CC4)c3Cc3ccc(S(N)(=O)=O)c(F)c3)c2)s1` [Compound 80, 2-(5-(2-Cyclopropylethyl)-4-(3-fluoro-4-sulfamoylbenzyl)-3-(3((5-methylthiazol-2-yl)ethynyl)phenyl)-1H-pyrazol-1-yl)thiazole-4-carboxylic Acid], for which the “aq solubility at pH 7.4” value in the series “Kinetic solubility assay” was “significantly diminished”.

As for `NS(=O)(=O)c1ccc(Cc2c(-c3ccc(F)c(C#CCN4CCCC4)c3)nn(-c3nc(C(=O)O)cs3)c2CC2CC2)cc1F` [Compound 39, 2-(5-(Cyclopropylmethyl)-3-(4-fluoro-3-(3-(pyrrolidin-1-yl)prop-1-yn-1-yl)phenyl)-4-(3-fluoro-4-sulfamoylbenzyl)-1H-pyrazol-1-yl)-thiazole-4-carboxylic Acid], the “aq solubility at pH 7.4” value in “Kinetic solubility assay” is reported as “significantly diminished”.

As to `Cn1cncc1C#Cc1cc(-c2nn(-c3nc(C(=O)O)cs3)c(CC3CC3)c2Cc2ccc(S(N)(=O)=O)c(F)c2)ccc1F` [Compound 48, 2-(5-(Cyclopropylmethyl)-3-(4-fluoro-3-((1-methyl-1H-imidazole-5-yl)ethynyl)phenyl)-4-(3-fluoro-4-sulfamoylbenzyl)-1H-pyrazol-1-yl)thiazole-4-carboxylic Acid], in the series “Kinetic solubility assay”, the “aq solubility at pH 7.4” value is on record as “significantly diminished”.

Regarding `NS(=O)(=O)c1ccc(Cc2c(-c3ccc(F)c(C#CC4(O)CCOC4)c3)nn(-c3nc(C(=O)O)cs3)c2CC2CC2)cc1F` (stereo not drawn) [Compound 31, 2-(5-(Cyclopropylmethyl)-3-(4-fluoro-3-((3-hydroxytetrahydrofuran-3-yl)ethynyl)phenyl)-4-(3-fluoro-4-sulfamoylbenzyl)-1H-pyrazol-1-yl)thiazole-4-carboxylic Acid], the IC50 on LDHA worked out at 5 nM; in the series with A673 cells [3], 5940 nM; in the series on A673 cells [4] it was 2640 nM; in the series on MiaPaCa-2 cells [5], 1740 nM; in the series on MiaPaCa-2 cells [6] it was 3870 nM; in series [7] it was 815 nM.

With `NS(=O)(=O)c1ccc(Cc2c(-c3ccc(F)c(C#CC4(O)CCCC4)c3)nn(-c3nc(C(=O)O)cs3)c2CC2CC2)cc1F` [Compound 25, 2-(5-(Cyclopropylmethyl)-3-(4-fluoro-3-((1-hydroxycyclopentyl)-ethynyl)phenyl)-4-(3-fluoro-4-sulfamoylbenzyl)-1H-pyrazol-1-yl)-thiazole-4-carboxylic Acid], the IC50 against LDHA was 7 nM; in the series with A673 cells [3], 1930 nM; in the series on A673 cells [4], 2190 nM; with MiaPaCa-2 cells [5], 2180 nM; in the series with MiaPaCa-2 cells [6], 1480 nM; in series [7], 150 nM.

Take `NS(=O)(=O)c1ccc(Cc2c(-c3ccc(F)c(C#CC4(O)COC4)c3)nn(-c3nc(C(=O)O)cs3)c2CC2CC2)cc1F` [Compound 28, 2-(5-(Cyclopropylmethyl)-3-(4-fluoro-3-((3-hydroxyoxetan-3-yl)-ethynyl)phenyl)-4-(3-fluoro-4-sulfamoylbenzyl)-1H-pyrazol-1-yl)-thiazole-4-carboxylic Acid]: the IC50 amounted to 6 nM on LDHA; 12200 nM with A673 cells [3]; 3590 nM with A673 cells [4]; 2990 nM in the series on MiaPaCa-2 cells [5]; 4870 nM in the series with MiaPaCa-2 cells [6]; 1500 nM in series [7].

In the case of `CC1(C#Cc2cc(-c3nn(-c4nc(C(=O)O)cs4)c(CC4CC4)c3Cc3ccc(S(N)(=O)=O)c(F)c3)ccc2F)COC1` [Compound 26, 2-(5-(Cyclopropylmethyl)-3-(4-fluoro-3-((3-methyloxetan-3-yl)-ethynyl)phenyl)-4-(3-fluoro-4-sulfamoylbenzyl)-1H-pyrazol-1-yl)-thiazole-4-carboxylic Acid], the IC50 at LDHA was determined as 10 nM; in the series on A673 cells [3], 1050 nM; in the series on A673 cells [4], 1180 nM; in the series with MiaPaCa-2 cells [5], 1240 nM; in the series on MiaPaCa-2 cells [6], 898 nM; in series [7] it was 84 nM. Also, the “aq solubility at pH 7.4” value in “Kinetic solubility assay” was “significantly diminished”.

A word on the clearance: it is the volume of plasma or blood freed of the substance per unit of time. Higher therefore signals efficient removal. In series [8], `Cc1cnc(C#Cc2cc(-c3nn(-c4nc(C(=O)O)cs4)c(CC4CC4)c3Cc3ccc(S(N)(=O)=O)c(F)c3)ccc2F)s1` [Compound 47, 2-(5-(Cyclopropylmethyl)-3-(4-fluoro-3-((5-methylthiazol-2-yl)-ethynyl)phenyl)-4-(3-fluoro-4-sulfamoylbenzyl)-1H-pyrazol-1-yl)-thiazole-4-carboxylic Acid] yielded a clearance at 24 h of 128 mL/min/kg. In addition, the “aq solubility at pH 7.4” value in “Kinetic solubility assay” was “significantly diminished”. Further, in series [2], the “effect on LDH activity in tumors (in words)” value was “less effects”.

Turning to `NS(=O)(=O)c1ccc(Cc2c(-c3ccc(F)c(C#CC4(F)CCOC4)c3)nn(-c3nc(C(=O)O)cs3)c2CC2CC2)cc1F` (stereo not drawn) [Compound 30, 2-(5-(Cyclopropylmethyl)-3-(4-fluoro-3-((3-fluorotetrahydrofuran-3-yl)ethynyl)phenyl)-4-(3-fluoro-4-sulfamoylbenzyl)-1H-pyrazol-1-yl)thiazole-4-carboxylic Acid], the IC50 against LDHA is 1 nM; in the series on A673 cells [3], 1060 nM; in the series on A673 cells [4] it was 1050 nM; in the series on MiaPaCa-2 cells [5] it was 882 nM; in the series with MiaPaCa-2 cells [6], 867 nM; in [7], 201 nM. The “aq solubility at pH 7.4” value in “Kinetic solubility assay” is given as “significantly diminished”.
